Test results published in patent US8389524B2, “Tricyclic nitrogen containing compounds as antibacterial agents” (Glaxo Group Limited, priority 2007, dated 2013).
Counter-ions that a name gives are not always drawn.

tested on: not listed separately; experiment: Antimicrobial Activity Assay: whole-cell antimicrobial activity by broth microdilution (CLSI M7-A7), MIC; format: cell-based, Gram-positive and Gram-negative organisms; conditions: against a strain of at least one of the organisms listed; tested in at least one exemplified salt or free base form
Method: Whole-cell antimicrobial activity was determined by broth microdilution using the Clinical and Laboratory Standards Institute (CLSI) recommended procedure, Document M7-A7, “Methods for Dilution Susceptibility Tests for Bacteria that Grow Aerobically”. The compounds were tested in serial two-fold dilutions ranging from 0.016 to 16 mcg/ml.
The minimum inhibitory concentration (MIC) was determined as the lowest concentration of compound that inhibited visible growth. A mirror reader was used to assist in determining the MIC endpoint.
Compounds were evaluated against Gram-positive organisms, selected from Staphylococcus aureus, Streptococcus pneumoniae, Streptococcus pyogenes, Enterococcus faecalis and Enterococcus faecium.
In addition, compounds were evaluated against Gram-negative organisms selected from Haemophilus influenzae, Moraxella catarrhalis, Escherichia coli, Pseudomonas aeruginosa, Proteus mirabilis, Enterobacter cloacae, Enterobacter aerogenes, Klebsiella pneumoniae and Stenotrophomonas maltophilia.

| SMILES | MIC [mg/L] |
| --- | --- |
| O=c1ccc2ccc(=O)n3c2n1C[C@H]3CN1CCC(NCc2cc3c(cn2)COC3)CC1 [Example 9, (1R)-1-({4-[(1,3-Dihydrofuro[3,4-c]pyridin-6-ylmethyl)amino]-1-piperidinyl}methyl)-1,2-dihydro-4H,1H-imidazo[1,2,3-ij]-1,8-naphthyridine-4,9-dione hydrochloride] | ≤ 4 |

tested on: Mycobacterium tuberculosis H37Rv; experiment: Mycobacterium tuberculosis H37Rv Inhibition Assay (resazurin, MIC); format: cell-based; conditions: ATCC 25618 / H37Rv, 144 h, H37Rv strain (ATCC25618), Middlebrook 7H9+ADC, six days at 37° C., resazurin fluorescence after 48 hours, read-out: MIC value

| SMILES | MIC [mg/L] |
| --- | --- |
| O=c1ccc2ccc(=O)n3c2n1CC3CN1CCC(NCc2cc3c(cn2)OCCS3)CC1 (racemic) [Example 63, 1-[(4-{[(2,3-Dihydro[1,4]oxathiino[2,3-c]pyridin-7-yl)methyl]amino}-1-piperidinyl)methyl]-1,2-dihydro-4H,9H-imidazo[1,2,3-ij]-1,8-naphthyridine-4,9-dione hydrochloride (2:1 mixture of R:S)] | < 2 |
| O=C1CSc2ccc(CNC3CCN(C[C@@H]4Cn5c(=O)ccc6ncc(=O)n4c65)CC3)nc2N1 [Example 29, (2R)-2-[(4-{[(3-Oxo-3,4-dihydro-2H-pyrido[3,2-b][1,4]thiazin-6-yl)methyl]amino}-1-piperidinyl)methyl]-1,2-dihydro-3H,8H-2a,5,8a-triazaacenaphthylene-3,8-dione hydrochloride] | < 2 |
| O=C1CSc2cc(Br)c(CNC3CCN(CC4Cn5c(=O)ccc6ccc(=O)n4c65)CC3)nc2N1 (centres unmarked) [Example 4, 1-({4-[(7-Bromo-3-oxo-3,4-Dihydro-2H-pyrido[3,2-b][1,4]thiazin-6-yl-methyl)amino-1-piperidinyl}methyl)1,2-dihydro-4H,9H-imidazo[1,2,3-ij]-1,8-naphthyridine-4,9-dione hydrochloride] | < 2 |
| O=c1ccc2ncc(=O)n3c2n1C[C@H]3CN1CCC(NCc2cc3c(cn2)SCO3)CC1 [Example 28, (2R)-2-({4-[([1,3]Oxathiolo[4,5-c]pyridin-6-ylmethyl)amino]-1-piperidinyl}methyl)-1,2-dihydro-3H,8H-2a,5,8a-triazaacenaphthylene-3,8-dione hydrochloride] | < 2 |
| O=c1ccc2ccc(=O)n3c2n1C[C@H]3CN1CCC(NCc2cc(F)c3c(c2)OCCO3)CC1 [Example 31, (1R)-1-[(4-{[(8-Fluoro-2,3-dihydro-1,4-benzodioxin-6-yl)methyl]amino}-1-piperidinyl)methyl]-1,2-dihydro-4H,9H-imidazo[1,2,3-ij]-1,8-naphthyridine-4,9-dione hydrochloride] | < 2 |
| CC1(NCc2cc3c(cn2)OCS3)CCN(C[C@@H]2Cn3c(=O)ccc4ccc(=O)n2c43)CC1 [Example 24, (1R)-1-({4-Methyl-4-[([1,3]oxathiolo[5,4-c]pyridin-6-ylmethyl)amino]-1-piperidinyl}methyl)-1,2-dihydro-4H,9H-imidazo[1,2,3-ij]-1,8-naphthyridine-4,9-dione hydrochloride] | < 2 |

same assay, conditions: ATCC 25618 / H37Rv, 144 h, read-out: MIC value, H37Rv strain (ATCC25618), Middlebrook 7H9+ADC, six days at 37° C., resazurin fluorescence after 48 hours

| SMILES | MIC [mg/L] |
| --- | --- |
| O=c1ccc2ccc(=O)n3c2n1C[C@H]3CN1CCC(NCc2ccc3c(c2)OCCC3)CC1 [Example 50, (1R)-1-({4-[(3,4-Dihydro-2H-chromen-7-ylmethyl)amino]-1-piperidinyl}methyl)-1,2-dihydro-4H,9H-imidazo[1,2,3-ij]-1,8-naphthyridine-4,9-dione hydrochloride] | < 2 |
| O=C1CSc2cnc(CNC3CCN(C[C@@H]4Cn5c(=O)ccc6ccc(=O)n4c65)CC3)nc2N1 [Example 34, (1R)-1-[(4-{[(7-Oxo-6,7-dihydro-1H-pyrimido[5,4-b][1,4]thiazin-2-yl)methyl]amino}-1-piperidinyl)methyl]-1,2-dihydro-4H,9H-imidazo[1,2,3-ij]-1,8-naphthyridine-4,9-dione dihydrochloride] | < 2 |
| O=c1cnc2ccc(=O)n3c2n1C[C@H]3CN1CCC(NCc2cc3c(cn2)OCS3)CC1 [Example 13A, (1R)-1-({4-[([1,3]Oxathiolo[5,4-c]pyridin-6-ylmethyl)amino]-1-piperidinyl}methyl)-1,2-dihydro-3H,8H-2a,5,8a-triazaacenaphthylene-3,8-dione hydrochloride] | < 2 |
| O=c1ccc2ncc(=O)n3c2n1C[C@H]3CN1CCC(NCc2ccc3nsnc3c2)CC1 [Example 25, (2R)-2-({4-[(2,1,3-Benzothiadiazol-5-ylmethyl)amino]-1-piperidinyl}methyl)-1,2-dihydro-3H,8H-2a,5,8a-triazaacenaphthylene-3,8-dione hydrochloride] | ≤ 1 |
| O=c1ccc2ccc(=O)n3c2n1C[C@H]3CN1CCC(NCc2cc3c(cn2)CCCC3)CC1 [Example 7, (1R)-1-({4-[(5,6,7,8-Tetrahydro-3-isoquinolinylmethyl)amino]-1-piperidinyl}methyl)-1,2-dihydro-4H,9H-imidazo[1,2,3-ij]-1,8-naphthyridine-4,9-dione hydrochloride] | < 2 |
| O=c1cnc2ccc(=O)n3c2n1C[C@H]3CN1CCC(NCc2cc3c(cn2)OCCS3)CC1 [Example 14, (1R)-1-({4-[(2,3-Dihydro-[1,4]oxathiino[2,3-c]pyridin-7-ylmethyl)amino]-1-piperidinyl}methyl)-1,2-dihydro-3H,8H-2a,5,8a-triazaacenaphthylene-3,8-dione hydrochloride] | < 2 |
| O=c1ccc2ncc(=O)n3c2n1C[C@H]3CN1CCC(NCc2cc3c(cn2)OCCS3)CC1 [Example 19A, (2R)-2-({4-[(2,3-Dihydro[1,4]oxathiino[2,3-c]pyridin-7-ylmethyl)amino]-1-piperidinyl}methyl)-1,2-dihydro-3H,8H-2a,5,8a-triazaacenaphthylene-3,8-dione hydrochloride] | < 2 |
| O=c1ccc2ccc(=O)n3c2n1C[C@H]3CN1CCC(NCc2cc3c(cn2)OCCS3)CC1 [Example 6A, (1R)-1-({4-[(2,3-Dihydro[1,4]oxathiino[2,3-c]pyridin-7-ylmethyl)amino]-1-piperidinyl}methyl)-1,2-dihydro-4H,9H-imidazo[1,2,3-ij]-1,8-naphthyridine-4,9-dione hydrochloride] | < 2 |
| O=c1cnc2ccc(=O)n3c2n1C[C@H]3CN1CCC(NCc2cc3c(cn2)OCCC3)CC1 [Example 37, (1R)-1-({4-[(3,4-Dihydro-2H-pyrano[2,3-c]pyridin-6-ylmethyl)amino]-1-piperidinyl}methyl)-1,2-dihydro-3H,8H-2a,5,8a-triazaacenaphthylene-3,8-dione hydrochloride] | < 2 |
| O=c1ccc2ncc(=O)n3c2n1C[C@H]3CN1CCC(NCc2ccc3c(c2)OCCO3)CC1 [Example 40, (2R)-2-({4-[(2,3-Dihydro-1,4-benzodioxin-6-ylmethyl)amino]-1-piperidinyl}methyl)-1,2-dihydro-3H,8H-2a,5,8a-triazaacenaphthylene-3,8-dione hydrochloride] | < 2 |
| O=c1ccc2ncc(=O)n3c2n1C[C@H]3CN1CCC(NCc2cc3c(cn2)OCS3)CC1 [Example 16A, (2R)-2-({4-[([1,3]Oxathiolo[5,4-c]pyridin-6-ylmethyl)amino]-1-piperidinyl}methyl)-1,2-dihydro-3H,8H-2a,5,8a-triazaacenaphthylene-3,8-dione hydrochloride] | < 2 |
| O=c1ccc2ccc(=O)n3c2n1C[C@H]3CN1CCC(NCc2cc3c(cn2)CCC3)CC1 [Example 8, (1R)-1-({4-[(6,7-Dihydro-5H-cyclopenta[c]pyridin-3-ylmethyl)amino]-1-piperidinyl}methyl)-1,2-dihydro-4H,9H-imidazo[1,2,3-ij]-1,8-naphthyridine-4,9-dione hydrochloride] | < 2 |
| N#Cc1cc(CNC2CCN(C[C@@H]3Cn4c(=O)cnc5ccc(=O)n3c54)CC2)cc2c1OCCO2 [Example 56, 7-{[(1-{[(1R)-3,8-Dioxo-1,2-dihydro-3H,8H-2a,5,8a-triazaacenaphthylen-1-yl]methyl}-4-piperidinyl)amino]methyl}-2,3-dihydro-1,4-benzodioxin-5-carbonitrile hydrochloride] | < 2 |
